Source: patent US20220204497A1, “NOVEL COMPOUND HAVING ANTICANCER ACTIVITY, AND METHOD FOR PRODUCING SAME” (MEDICINAL BIOCONVERGENCE RESEARCH CENTER, priority 2019, published 2022)

Experiments:
A549 cells = assay: Cell viability by MTT method in A549 cells; format: cell-based; design: concentration or dose not given beside the values; conditions: 72 hours treatment
AIMP2-DX2 = target: T1, AIMP2-DX2 (Homo sapiens, UniProt Q13155); assay: DX2-nanoluciferase assay (DX2 expression change) in transfected A549 cells; conditions: inhibitory effect on AIMP2-DX2 expression; for inhibition at 40 µM: A549, 4 h, read-out: DX-Nanoluciferase activity (40 μM), 40 μM, 4 hours treatment, A549 cells transfected with nanoluciferase-DX2; for DX-Nanoluciferase activity (40 μM): 4 hours treatment, A549 cells transfected with nanoluciferase-DX2
T1 sequence (Q13155 1-251 isoform Q13155-2): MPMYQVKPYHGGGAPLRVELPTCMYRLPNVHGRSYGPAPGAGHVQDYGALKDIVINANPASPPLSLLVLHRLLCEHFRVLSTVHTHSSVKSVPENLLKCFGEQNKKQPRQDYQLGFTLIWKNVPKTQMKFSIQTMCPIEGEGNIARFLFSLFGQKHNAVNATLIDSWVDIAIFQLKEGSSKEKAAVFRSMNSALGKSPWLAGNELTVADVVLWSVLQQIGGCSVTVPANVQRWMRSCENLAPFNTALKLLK
Protocol: After cloning DX2 into a plasmid expressing nanoluciferase, the plasmid was transfected into A549 cells. Transfected cells were seeded 1×10^4 per well in a 96-well plate and stabilized for 12 hours. […] Cell viability was measured by the MTT method after 72 hours of treatment with each concentration of the compound in A549 cells.

SMILES | Cell Viability (% inhibition) (A549) (A549 cells) | inhibition at 40 µM (AIMP2-DX2) | DX-Nanoluciferase activity (40 μM) (AIMP2-DX2)
Cc1ccc(S(=O)(=O)N[C@@H](CS)C(=O)N2CCOCC2)cc1 [Compound 41, (R)—N-(3-mercapto-1-morpholino-1-oxopropan-2-yl)-4-methylbenzenesulfonamide] | 12.16 ± 6.14% | 52.5 ± 5.6% | –
Cc1ccc(S(=O)(=O)N[C@H](C(=O)Nc2ccc(N3CCOCC3)cc2)[C@H](C)O)cc1 [Compound 42, (2S,3S)-3-hydroxy-2-(4-methylphenylsulfonamido)-N-(4-morpholinophenyl)butanamide] | 13.24 ± 6.93% | -12.8 ± 10.6% | –
CC[C@H](C)[C@H](NS(=O)(=O)c1ccc(C)cc1)C(=O)Nc1ccc(N2CCOCC2)cc1 [Compound 43, (2S,3S)-3-methyl-2-(4-methylphenylsulfonamido)-N-(4-morpholinophenyl)pentanamide] | 17.08 ± 7.96% | 42.9 ± 3.9% | –
Cc1ccc(S(=O)(=O)N[C@@H](Cc2cc3ccccc3[nH]2)C(=O)Nc2ccc(N3CCOCC3)cc2)cc1 [Compound 46, (S)-3-(1H-indol-2-yl)-2-(4-methylphenylsulfonamido)-N-(4-morpholinophenyl) propanamide] | 61.35 ± 10.27% | – | 67.1 ± 10.8
Cc1ccc(S(=O)(=O)N[C@@H](Cc2cn(C)c3ccccc23)C(=O)Nc2ccc(N3CCOCC3)cc2)cc1 [Compound 47, (S)-3-(1-methyl-1H-indol-3-yl)-2-(4-methylphenylsulfonamido)-N-(4-morpholinophenyl) propanamide] | 64.95 ± 2.84% | – | 38.20 ± 7.73
Cc1ccc(S(=O)(=O)N[C@@H](CC(C)C)C(=O)OCc2ccccc2)cc1 [Compound 49, (S)-benzyl 4-methyl-2-(4-methylphenylsulfonamido)pentanoate] | 96.77 ± 0.70% | 43.1 ± 6.46% | –
Cc1ccc(C(=O)N[C@@H](CC(C)C)C(=O)OCc2ccccc2)cc1 [Compound 50, (S)-benzyl 4-methyl-2-(4-methylbenzamido)pentanoate] | 75.41 ± 3.28% | 65.9 ± 4% | –
CC(C)C[C@H](NC(=O)c1ccc(C(C)(C)C)cc1)C(=O)OCc1ccccc1 [Compound 51, (S)-benzyl 2-(4-tert-butylbenzamido)-4-methylpentanoate] | 11.62 ± 4.29% | 63.5 ± 4.5% | –
CC(C)C[C@H](NC(=O)c1ccc2c(c1)OCO2)C(=O)OCc1ccccc1 [Compound 52, (S)-benzyl 2-(benzo[d][1,3]dioxole-5-carboxamido)-4-methylpentanoate] | 64.59 ± 5.15% | -5.6 ± 5.2% | –
CC(C)C[C@H](NC(=O)c1ccc(NC(=O)OC(C)(C)C)cc1)C(=O)OCc1ccccc1 [Compound 53, (S)-benzyl 2-(4-(tert-butoxycarbonylamino)benzamido)-4-methylpentanoate] | 49.19 ± 13.33% | 43.7 ± 9.9% | –
CC(C)C[C@H](NC(=O)CCS(=O)(=O)c1ccccc1)C(=O)OCc1ccccc1 [Compound 54, (S)-benzyl 4-methyl-2-(3-(phenylsulfonyl)propanamido)pentanoate] | 84.05 ± 2.61% | – | 33.7 ± 4.3
CC(C)C[C@H](NC(=O)Nc1ccccc1)C(=O)N1CCOCC1 [Compound 56, (S)-1-(4-Methyl-1-morpholino-1-oxopentan-2-yl)-3-phenylurea] | 32.07% | 33 ± 10.7% | –
CC(C)C[C@H](NC(=O)c1ccc(C(C)(C)C)cc1)C(=O)N1CCOCC1 [Compound 57, (S)-4-tert-Butyl-N-(4-methyl-1-morpholino-1-oxopentan-2-yl)benzamide] | −4.86 ± 4.95% | 63.8 ± 11% | –
CC(C)C[C@H](NC(=O)CCS(=O)(=O)c1ccccc1)C(=O)N1CCOCC1 [Compound 58, (S)—N-(4-Methyl-1-morpholino-1-oxopentan-2-yl)-3-(phenylsulfonyl)propanamide] | −0.81 ± 4.95% | 63.1 ± 4.5% | –
CC(C)C[C@H](NC(=O)c1ccc(C(C)(C)C)cc1)C(=O)Nc1ccc(N2CCOCC2)cc1 [Compound 59, (S)-4-tert-Butyl-N-(4-methyl-1-(4-morpholinophenylamino)-1-oxopentan-2-yl)benzamide] | 90.03 ± 0.97% | 45.7 ± 8.28% | –
CC(C)C[C@H](NC(=O)c1ccc2c(c1)OCO2)C(=O)Nc1ccc(N2CCOCC2)cc1 [Compound 60, (S)—N-(4-Methyl-1-(4-morpholinophenylamino)-1-oxopentan-2-yl)benzo[d][1,3]dioxole-5-carboxamide] | 9.46 ± 9.67% | 35.7 ± 10.2% | –
CC(C)C[C@H](NC(=O)CCS(=O)(=O)c1ccccc1)C(=O)Nc1ccc(N2CCOCC2)cc1 [Compound 61, (S)-4-Methyl-N-(4-morpholinophenyl)-2-(3-(phenylsulfonyl)propanamido)pentanamide] | −1.25 ± 3.63% | 60.3 ± 4.8% | –
Cc1cc(C)cc(S(=O)(=O)N[C@@H](Cc2c[nH]c3ccccc23)C(=O)Nc2ccc(N3CCOCC3)cc2)c1 [Compound 66, (S)-2-(3,5-Dimethylphenylsulfonamido)-3-(1H-indol-3-yl)-N-(4 morpholinophenyl)propanamide] | 77.25 ± 0.82% | 42.4 ± 3.97% | –
O=C(Nc1ccc(N2CCOCC2)cc1)[C@H](Cc1c[nH]c2ccccc12)NS(=O)(=O)c1ccc(F)cc1 [Compound 67, (S)-2-(4-Fluorophenylsulfonamido)-3-(1H-indol-3-yl)-N-(4-morpholinophenyl)propanamide] | 69.20 ± 2.10% | 44.5 ± 14.2% | –
O=C(Nc1ccc(N2CCOCC2)cc1)[C@H](Cc1c[nH]c2ccccc12)NS(=O)(=O)c1ccc(C(F)(F)F)cc1 [Compound 68, (S)-3-(1H-indol-3-yl)-N-(4-morpholinophenyl)-2-(4-(trifluoromethyl)phenylsulfon-amido)propanamide] | 76.90 ± 0.51% | – | 48.06 ± 6.78
Cc1ccc(S(=O)(=O)N[C@@H](Cc2c[nH]c3ccc(O)cc23)C(=O)Nc2ccc(N3CCOCC3)cc2)cc1 [Compound 69, (S)-3-(5-Hydroxy-1H-indol-3-yl)-2-(4-methylphenylsulfonamido)-N-(4-morpholinophenyl)propanamide] | 20.62 ± 5.14% | 48.4 ± 11.6% | –
Cc1ccc(S(=O)(=O)N[C@@H](Cc2c[nH]c3ccccc23)C(=O)N2CCOCC2)cc1 [Compound 70, (S)—N-(3-(1H-indol-3-yl)-1-morpholino-1-oxopropan-2-yl)-4-methylbenzenesulfonamide] | 23.61 ± 2.18% | 59.7 ± 3.49% | –
Cc1ccc(S(=O)(=O)N[C@@H](Cc2c[nH]c3ccccc23)C(=O)Nc2ncc(N3CCOCC3)s2)cc1 [Compound 71, (S)-3-(1H-indol-3-yl)-2-(4-methylphenylsulfonamido)-N-(5-morpholinothiazol-2-yl)propan amide] | 72.71 ± 0.97% | – | 54.64 ± 13.30
Cc1ccc(S(=O)(=O)N[C@@H](Cc2c[nH]c3ccccc23)C(=O)Nc2ccc(N3CCOCC3)cc2)c(C)c1 [Compound 72, (S)-2-(2,4-Dimethylphenylsulfonamido)-3-(1H-indol-3-yl)-N-(4-morpholinophenyl)propanamide] | 73.73 ± 0.78% | 21.5 ± 7.62% | –
CCOC(=O)C(Cc1c[nH]c2ccc(C(=O)O)cc12)NS(=O)(=O)c1ccc(C)cc1 (stereo not shown) [Compound 73, 3-(3-Ethoxy-2-(4-methylphenylsulfonamido)-3-oxopropyl)-1H-indole-5-carboxylic acid] | 4.32 ± 2.95% | 44.2 ± 3.91% | –
Cc1ccc(S(=O)(=O)N[C@@H](Cc2cn(S(=O)(=O)c3ccc(C)cc3)cn2)C(=O)Nc2ccc(N3CCOCC3)cc2)cc1 [Compound 74, (S)-2-(4-Methylphenylsulfonamido)-N-(4-morpholinophenyl)-3-(1-tosyl-1H-Imidazol-4-yl)propanamide] | 45.34 ± 4.64% | 56.2 ± 14.5% | –
Cc1ccc(S(=O)(=O)N[C@@H](Cc2c[nH]c3ccccc23)C(=O)Nc2ccc(N3C[C@@H](C)O[C@@H](C)C3)nc2)cc1 [Compound 75, (S)—N-(6-((2S,6R)-2,6-dimethylmorpholino)pyridin-3-yl)-3-(1H-indol-3-yl)-2-(4-methylphenylsulfonamido)propanamide] | 79.58 ± 3.72% | 57.8 ± 8% | –
Cc1ccc(S(=O)(=O)N[C@@H](Cc2c[nH]c3ccccc23)C(=O)Nc2ccc(N3CCOCC3)c(F)c2)cc1 [Compound 77, (S)—N-(3-fluoro-4-morpholinophenyl)-3-(1H-indol-3-yl)-2-(4-methylphenylsulfonamido)propanamide] | 80.59 ± 1.49% | 23.9 ± 7.01% | –
O=C(Nc1ccc(N2CCOCC2)cc1)[C@H](Cc1c[nH]c2ccccc12)NS(=O)(=O)c1ccc([N+](=O)[O-])cc1 [Compound 78, (S)-3-(1H-indol-3-yl)-N-(4-morpholinophenyl)-2-(4-nitrophenylsulfonamido)propanamide] | 67.08 ± 1.45% | 44.5 ± 12.7% | –
